Measured values from the supplement of paper PMC11451515.

Test system: SEM cells
Test: cell viability relative to DMSO control; higher = less cytotoxic
Settings: 48 h
In short: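 Viability is a per-plate percentage relative to DMSO wells, with cell-free wells as background. CellTiter-Glo One luminescence was read after 48 h at 37°C on 1536-well plates (5 μl) of NOMO1 or SEM (500 cells/well) or P12-Ichikawa (1000 cells/well) leukemia cells. The cells had been adapted for at least four passages in each medium and pin-dosed with library compounds in DMSO from 47 μM to 0.79 nM in 11 threefold steps.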

[1] = HPLM + 10% dialyzed FBS, 0.000781 µM
[2] = HPLM + 10% dialyzed FBS, 0.00234 µM
[3] = HPLM + 10% dialyzed FBS, 0.00702 µM
[4] = HPLM + 10% dialyzed FBS, 0.0211 µM
[5] = HPLM + 10% dialyzed FBS, 0.0632 µM
[6] = HPLM + 10% dialyzed FBS, 0.19 µM
[7] = HPLM + 10% dialyzed FBS, 0.569 µM
[8] = HPLM + 10% dialyzed FBS, 1.71 µM
[9] = HPLM + 10% dialyzed FBS, 5.12 µM
[10] = HPLM + 10% dialyzed FBS, 15.4 µM
[11] = HPLM + 10% dialyzed FBS, 46.1 µM
[12] = RPMI 5 mM glucose + 10% FBS, 0.000781 µM
[13] = RPMI 5 mM glucose + 10% FBS, 0.00234 µM
[14] = RPMI 5 mM glucose + 10% FBS, 0.00702 µM
[15] = RPMI 5 mM glucose + 10% FBS, 0.0211 µM
[16] = RPMI 5 mM glucose + 10% FBS, 0.0632 µM
[17] = RPMI 5 mM glucose + 10% FBS, 0.19 µM
[18] = RPMI 5 mM glucose + 10% FBS, 0.569 µM
[19] = RPMI 5 mM glucose + 10% FBS, 1.71 µM
[20] = RPMI 5 mM glucose + 10% FBS, 5.12 µM
[21] = RPMI 5 mM glucose + 10% FBS, 15.4 µM
[22] = RPMI 5 mM glucose + 10% FBS, 46.1 µM
[23] = RPMI 5 mM glucose + 10% dialyzed FBS, 0.000781 µM
[24] = RPMI 5 mM glucose + 10% dialyzed FBS, 0.00234 µM
[25] = RPMI 5 mM glucose + 10% dialyzed FBS, 0.00702 µM
[26] = RPMI 5 mM glucose + 10% dialyzed FBS, 0.0211 µM
[27] = RPMI 5 mM glucose + 10% dialyzed FBS, 0.0632 µM
[28] = RPMI 5 mM glucose + 10% dialyzed FBS, 0.19 µM
[29] = RPMI 5 mM glucose + 10% dialyzed FBS, 0.569 µM
[30] = RPMI 5 mM glucose + 10% dialyzed FBS, 1.71 µM
[31] = RPMI 5 mM glucose + 10% dialyzed FBS, 5.12 µM
[32] = RPMI 5 mM glucose + 10% dialyzed FBS, 15.4 µM
[33] = RPMI 5 mM glucose + 10% dialyzed FBS, 46.1 µM

| SMILES | cell viability [1] | cell viability [2] | cell viability [3] | cell viability [4] | cell viability [5] | cell viability [6] | cell viability [7] | cell viability [8] | cell viability [9] | cell viability [10] | cell viability [11] | cell viability [12] | cell viability [13] | cell viability [14] | cell viability [15] | cell viability [16] | cell viability [17] | cell viability [18] | cell viability [19] | cell viability [20] | cell viability [21] | cell viability [22] | cell viability [23] | cell viability [24] | cell viability [25] | cell viability [26] | cell viability [27] | cell viability [28] | cell viability [29] | cell viability [30] | cell viability [31] | cell viability [32] | cell viability [33] |
| --- | --- | --- | --- | --- | --- | --- | --- | --- | --- | --- | --- | --- | --- | --- | --- | --- | --- | --- | --- | --- | --- | --- | --- | --- | --- | --- | --- | --- | --- | --- | --- | --- | --- |
| CC(C)(O)C(=O)Nc1ccc([N+](=O)[O-])c(C(F)(F)F)c1 | 98.6% | 107% | 115% | 108% | 116% | 113% | 124% | 123% | 117% | 123% | 103% | 92.2% | 97% | 91.9% | 91.3% | 101% | 97.6% | 103% | 114% | 104% | 123% | 82.8% | 112% | 114% | 112% | 120% | 112% | 118% | 135% | 123% | 131% | 128% | 126% |
| CN(C(Cc1ccc(O[S+](=O)([O-])c2cccc3cnccc23)cc1)C(=O)N1CCN(c2ccccc2)CC1)[S+](=O)([O-])c1cccc2cnccc12 (stereo not given) | 102% | 110% | 112% | 105% | 110% | 108% | 114% | 95.3% | 94.6% | 74.2% | 39.1% | 120% | 110% | 108% | 109% | 108% | 99.7% | 108% | 96.9% | 95% | 46.2% | 22.9% | 110% | 120% | 100% | 119% | 114% | 120% | 114% | 110% | 90.3% | 67.1% | 34.5% |
| COc1ccc2[nH]cc(CCNC(C)=O)c2c1 | 91% | 110% | 113% | 116% | 127% | 114% | 114% | 101% | 103% | 117% | 106% | 112% | 123% | 124% | 124% | 117% | 114% | 124% | 102% | 110% | 123% | 119% | 121% | 131% | 114% | 144% | 125% | 113% | 120% | 104% | 100% | 124% | 113% |
| CCCCc1nc2cc(/C=C/C(=O)NO)ccc2n1CCN(CC)CC | 91.9% | 91.8% | 105% | 98.1% | 108% | 108% | 92.6% | 61.1% | 6.03% | 4.68% | 5.88% | 85.4% | 99.1% | 94.8% | 97.8% | 109% | 107% | 94% | 73% | 5.16% | 4.06% | 5.64% | 82.9% | 79.1% | 95.6% | 94% | 77.5% | 99.6% | 76.6% | 57.7% | 6.04% | 4.68% | 6.77% |
| CC[C@@H]1C(=O)N(C)c2cnc(Nc3ccc(C(=O)NC4CCN(C)CC4)cc3OC)nc2N1C1CCCC1 | – | – | – | – | – | – | – | – | – | – | – | 104% | 125% | 114% | 116% | 39% | 19.9% | 20.8% | 17.8% | 13.5% | 7.48% | 3.43% | 117% | 128% | 105% | 128% | 37.9% | 23.2% | 22.1% | 18.9% | 11.1% | 6.14% | 3.08% |
| O=[S+]([O-])(NCCNC/C=C/c1ccc(Br)cc1)c1cccc2cnccc12 | 97.5% | 94.8% | 97.5% | 42.4% | 101% | 89.5% | 91.1% | 82.3% | 68.7% | 43.1% | 48.2% | 115% | 119% | 115% | 48.9% | 114% | 131% | 105% | 103% | 62.5% | 58.4% | 43.7% | 95.5% | 96.6% | 93.8% | 45.3% | 91.6% | 87.7% | 83.8% | 74.5% | 56.4% | 41.6% | 34.9% |
| CS[C@H]1SC[C@@H]2C(=O)N(C)[C@H](C(C)C)C(=O)OC[C@H](NC(=O)c3cnc4ccccc4n3)C(=O)N[C@H](C)C(=O)N(C)[C@H]1C(=O)N(C)[C@H](C(C)C)C(=O)OC[C@H](NC(=O)c1cnc3ccccc3n1)C(=O)N[C@H](C)C(=O)N2C | 81.1% | 59% | 37.5% | 14.2% | 7.27% | 7.08% | 7.54% | 7.91% | 7.3% | 6% | 5.18% | 76.5% | 47.9% | 25.6% | 9.07% | 6.95% | 7.44% | 7.22% | 7.34% | 7.64% | 6.82% | 5% | 66.4% | 44.7% | 34.2% | 11.8% | 7.65% | 8.72% | 8.82% | 8.65% | 8.6% | 7.68% | 5.52% |
